# Experimental data taken from paper PMC12207910 (European journal of pharmaceutical sciences : official …, 2024).
# Read-outs that look alike come from different tables or passages of the source.
# How the values were obtained:
# [1] = system: Staphylococcus pneumoniae (ATCC 49619); test: microbe, parasite or virus in culture; conditions: ATCC49619, read-out: MIC Staphylococcus pneumoniae (ATCC 49619)
# [2] = system: Enterococcus faecium (ATCC 27270); test: microbe, parasite or virus in culture; conditions: ATCC27270, read-out: MIC Enterococcus faecium (ATCC 27270)
# C. albicans (ATCC 60193) [3] = test: Kill kinetics assay; format: cell-based; conditions: MIC and 4×MIC, compared to 3b and 4b
# C. krusii (ATCC 6258) = test: organism not typed; conditions: read-out: MIC C. krusii (ATCC 6258)
# C. albicans (ATCC 60193) [4] = test: microbe, parasite or virus in culture; conditions: Candida albicans, ATCC60193, read-out: MIC C. albicans (ATCC 60193)
# C. albicans (ATCC 10132) = test: microbe, parasite or virus in culture; conditions: Candida albicans, ATCC10132, read-out: MIC C. albicans (ATCC 10132)
# C. albicans (ATCC 60193) [5] = test: microbe, parasite or virus in culture; format: cell-based; conditions: Candida albicans
MIC (C. krusii (ATCC 6258)) [µg/mL],MIC (C. albicans (ATCC 60193) [4]) [µg/mL],MIC (C. albicans (ATCC 10132)) [µg/mL],"MIC (C. albicans (ATCC 60193) [5]; ATCC60193, read-out: MIC CaCl2) [µg/mL]","MIC (C. albicans (ATCC 60193) [5]; ATCC60193, read-out: MIC Control) [µg/mL]","MIC (C. albicans (ATCC 60193) [5]; ATCC60193, read-out: MIC FBS (25%)) [µg/mL]","MIC (C. albicans (ATCC 60193) [5]; ATCC60193, read-out: MIC KCl) [µg/mL]","MIC (C. albicans (ATCC 60193) [5]; ATCC60193, read-out: MIC MgCl2) [µg/mL]","MIC (C. albicans (ATCC 60193) [5]; ATCC60193, read-out: MIC NH4Cl) [µg/mL]","MIC (C. albicans (ATCC 60193) [5]; ATCC60193, read-out: MIC NaCl) [µg/mL]",Structure (SMILES),MIC [1] [µg/mL],MIC [2] [µg/mL],fungicidal effect in kill kinetics (C. albicans (ATCC 60193) [3])
–,–,–,–,–,–,–,–,–,–,CN[C@H](CC(C)C)C(=O)N[C@H]1C(=O)N[C@@H](CC(N)=O)C(=O)N[C@H]2C(=O)N[C@H]3C(=O)N[C@H](C(=O)N[C@H](C(=O)O)c4cc(O)cc(O)c4-c4cc3ccc4O)[C@H](O)c3ccc(c(Cl)c3)Oc3cc2cc(c3O[C@@H]2O[C@H](CO)[C@@H](O)[C@H](O)[C@H]2O[C@H]2C[C@](C)(N)[C@H](O)[C@H](C)O2)Oc2ccc(cc2Cl)[C@H]1O [Vancomycin],3.1,1.5,–
0.7,1.5,0.7,1.5,1.5,1.5,1.5,1.5,1.5,1.5,OC(Cn1cncn1)(Cn1cncn1)c1ccc(F)cc1F [Fluconazole],–,–,mild fungicidal effect
